Experimental data as given in ChEMBL document CHEMBL1156829 (Proc Natl Acad Sci U S A, 2008).
pEC50: −log10 of the molar value.

Key:
[1] = system: Plasmodium falciparum; experiment: NOVARTIS: Inhibition of Plasmodium falciparum 3D7 (drug-susceptible) proliferation in erythrocyte-based infection assay; type: functional, organism-based; conditions: Plasmodium falciparum, 3D7
[2] = NOVARTIS: Cytotoxicity against human hepatocellular carcinoma cell line (Huh7); type: toxicity, cell-based, Huh-7; conditions: Huh7 cells (hepatocellular carcinoma cell line)
[3] = system: Plasmodium falciparum; experiment: NOVARTIS: Inhibition of Plasmodium falciparum W2 (drug-resistant) proliferation in erythrocyte-based infection assay; type: functional, organism-based; conditions: Plasmodium falciparum, W2; read-out: EC50

SMILES	pEC50 [1]	CC50 [2] [µM]	pEC50 [3]
CC1CC(C)CN(CCCNc2ccc(C(=O)Nc3ccc(C(F)(F)F)cc3)cc2[N+](=O)[O-])C1 (configuration not stated)	6.93	> 100	6.40
OC1=C2C(=Nc3ccccc3SC2c2ccccc2)c2ccccc21 (configuration not stated)	7.33	27.1	6.95
Cc1ccc(NC2=C(N3CCCCC3)C(=O)c3ccccc3C2=O)cc1	6.88	18.5	7.11
O=C(N1CCCCC1)n1nnc2ccccc21	5.88	> 100	6.40
O=C(NNc1ccccc1F)C1CCC1	6.31	> 10	7.39
CCC(C)NCC(O)(c1ccc(Cl)cc1)c1ccc(Cl)cc1 (configuration not stated)	6.19	46.3	6.73
CCOC(=O)c1c(NC(=O)C(C)Sc2nnc(CNC(=O)c3ccco3)n2-c2cccc(Cl)c2)sc2c1CCCC2 (configuration not stated)	< 4.90	> 100	6.37
c1ccc(-c2csc(Nc3nc4cc5c(cc4s3)OCO5)n2)nc1	6.19	> 100	6.38
Cc1ccc(N2C(N)=NC(N)=NC2(C)C)cc1	7.71	> 100	6.37
CCC1(C)CC(CCNCc2ccccc2O)(c2ccccc2OC)CCO1 (configuration not stated)	6.46	23.9	7.02
CCOc1cc(-c2nnc3[nH]c(=O)n(C)c(=O)c3n2)ccc1OC(C)C	5.96	> 100	6.40
c1ccc(-c2ccnc3c2ccc2c(-c4ccccc4)ccnc23)cc1	6.48	> 100	6.37
CCCNC(=O)c1ccc(OC2CCN(CC3CCCCC3)CC2)c(Cl)c1	6.54	42.4	6.74
CCOC(=O)c1cnc2ccccc2c1NCCCN(C)C	6.70	52.1	6.65
COc1ccc(NC(C)=C2C(=O)c3ccccc3C2=O)c(OC)c1	5.90	> 100	6.37
COc1ccccc1C(=O)ON=C(N)Cc1cccc2ccccc12	6.45	49.6	6.67
c1ccc(Cn2c(N=NNc3nc4ccccc4n3Cc3ccccc3)nc3ccccc32)cc1	7.07	19.2	7.09

SMILES	pEC50 [1]	CC50 [2] [µM]	pEC50 [3]
O=C(NCc1ccco1)c1ccc(OC2CCN(Cc3ccncc3)CC2)c(Cl)c1	6.17	> 100	6.37
C=CC[N+]1(CC#Cc2cccc3ccccc23)CCCCC1	6.17	> 100	6.40
COC(=O)c1ccc2c(=O)n(Cc3ccc4c(c3)OCO4)c(SCC(=O)n3nc(C)cc3N)nc2c1	6.84	> 10	7.39
Cc1c(C#N)c2ccccc2n1CC(=O)NCCc1ccccc1	6.40	> 100	6.39
C=CCC1C=C(Cc2ccccc2)CC(CC=C)N1 (configuration not stated)	5.37	46	6.73
COc1ccccc1C(=O)Oc1ccccc1-c1nc2ccccn2c1NC(C)(C)CC(C)(C)C	5.80	> 10	7.39
CC(C)CCNCC(O)Cn1c2ccccc2c2ccccc21 (configuration not stated)	6.70	8.06	7.49
CCCC(=O)N1CCN(c2nc(Cc3ccccc3)c3c(c2C#N)CC(C)(C)OC3)CC1	6.49	> 90.9	6.44
Cc1c(C)n(Cc2ccc(F)cc2)c2ccc(C(=O)NCc3ccco3)cc12	7.11	> 100	6.40
CCOc1cc2c(cc1OCC)C(c1cc(Cl)ccc1O)NCC2 (configuration not stated)	6.39	24.2	7.02
C#CCNC(=O)c1ccc(OC2CCN(CC3CCCCC3)CC2)c(Cl)c1	6.30	> 100	6.40
CC1=C(C(=O)OC(C)C)C(c2ccc(Br)cc2)C2=C(CC(c3ccc(Cl)cc3)CC2=O)N1 (configuration not stated)	5.84	> 100	6.39
COc1ccc(Nc2nc(NN=Cc3cccc([N+](=O)[O-])c3)nc(Nc3ccc([N+](=O)[O-])cc3)n2)cc1	6.39	> 100	6.39
C=CCn1nc(C(=O)N2CCCC2)c2c1CCC(N1CCCCCC1)C2 (configuration not stated)	6.11	> 10	7.40
COc1ccc(-c2csc(Nc3cccc(Cl)c3C)n2)cc1OC	5.09	> 89.3	6.45
O=c1c2ccccc2[nH]c2ccc(I)cc12	6.41	> 100	6.38
CCCCNC1=CC(=O)C(=O)c2ccccc21	6.32	> 77.9	6.49
